The values below come from US11173167B2, “Nutritional intervention for improving muscular function and strength” (Metabolic Technologies, Inc., priority 2008, dated 2021).

In series [1] the target is T1, 1-alpha, 25-Vitamin D hydroxylase (Homo sapiens, UniProt O15528).
T1 sequence (O15528 1-508): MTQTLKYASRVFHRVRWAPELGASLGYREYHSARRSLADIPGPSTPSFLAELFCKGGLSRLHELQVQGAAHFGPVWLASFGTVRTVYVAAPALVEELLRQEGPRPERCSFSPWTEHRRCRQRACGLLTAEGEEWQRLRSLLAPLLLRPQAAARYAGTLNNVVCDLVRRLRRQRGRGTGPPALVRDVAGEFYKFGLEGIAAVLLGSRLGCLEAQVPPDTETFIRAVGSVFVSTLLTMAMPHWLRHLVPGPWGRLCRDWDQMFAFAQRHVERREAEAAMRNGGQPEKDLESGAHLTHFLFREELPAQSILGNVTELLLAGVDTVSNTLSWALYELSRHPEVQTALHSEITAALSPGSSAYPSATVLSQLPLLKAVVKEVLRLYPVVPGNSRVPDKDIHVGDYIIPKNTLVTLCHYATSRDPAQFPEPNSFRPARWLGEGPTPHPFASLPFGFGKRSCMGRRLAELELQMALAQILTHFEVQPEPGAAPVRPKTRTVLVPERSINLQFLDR
Conditions: human vascular smooth muscle; cited from earlier work.

Series [2] relates to Mouse C2C12 skeletal muscle cell myoblasts fused into myotubes. The series can be described thus: Protein degradation and synthesis by leucine isotope release/disappearance in C2C12 myotubes with dexamethasone. It counts as cell-based. Conditions: 24 h, dexamethasone 100 nM. How it is done: Mouse C2C12 skeletal muscle cell myoblasts were grown in culture under standard conditions and fused into myotubes following the methods of Menconi et al. (95). Four separate studies were conducted during different weeks. The first 3 studies consisted of 4 replicate dishes per treatment and the fourth study consisted of 6 replicate dishes per treatment. The treatments were applied to the cells during the 24 h measurement period. Treatments applied were control, 25OH-VitD3 (200 ng/mL), HMB (200 μM HMB as Ca(HMB)2, and the combination of HMB and 25OH-VitD3. Dexamethasone (100 nM) was added to the culture medium during the treatment/measurement period to stimulate protein degradation. Calcium in the form of calcium chloride was added to the control and 25OH-VitD3 treatments so that all the treatments were balanced for calcium. For measurement of protein degradation during the treatment period, leucine free medium was obtained to which [5,5,5]^2H3-leucine was added so that the isotopes of leucine (natural leucine and [1-^13C]-leucine) could be measured as they were released into the medium through the protein degradation process. The measurement medium was sampled at 2 and 24 h and samples stored at −80° C. until analyzed. The samples were analyzed for leucine using a gas chromatography (model 6890, Hewlett Packard, Palo, Calif.) mass spectrometry (model 5973, Hewlett Packard, Palo, Calif.) and the gas chromatography column used for the analysis was a Zebron ZB-5. (Phenomenex, Torrence, Calif.). Natural leucine, [1-^13C]-leucine, and [5,5,5^2H3]-leucine were monitored at 302, 303, and 305 AMU, respectively. Corrections for sampling at 2 h and for leucine utilization from the measurement media were made. […] Concentrations of proteins were analyzed following the microplate assay instructions using a Pierce BCA protein assay kit (Thermo Scientific, Rockford, Ill.). DNA was measured flourometrically using the Quant-iT™ dsDNA assay kit from Invitrogen (Carlsbad, Calif.). […]

The conditions of series [3]: after HMB is fed; cited from earlier work.
The nature of series [4]: 12-week HMB / Vitamin D study, knee extension strength (BIODEX peak torque). Conditions: older adults, 8 weeks. It counts as in vivo, human. From the text: (§1) Prior to the start of the experimental period, we randomly assigned nutritional supplements to each subject using computer-generated random numbers in a double-blind fashion. Treatments were arranged in a 2×2 factorial design with two levels of HMB (0 & 3.0 g/d) and two levels of Vitamin D (0 & 2,000 IU/d). We assigned subjects to one of the following four treatments:
The exercise testing and training session was supervised by trained research associates. Resting heart rate and blood pressure measurements were obtained prior to strength measurements. Enrolled individuals participated in an exercise training program consisting of strength training exercises with Theraband® stretch cords (resistance training) and jumping. The equipment consisted of items that can easily be used at home. Exercise sessions were 3 times a week for 12 weeks. Each exercise session was about 45-60 minutes. […]
Body composition measurements were obtained at 0, 4, 8, and 12 weeks. […] Handgrip strength was measured using a handgrip dynamometer. Peak torque for knee extension and flexion was measured at 60, 90 and 120°/sec. Peak torque for elbow extension and flexion was measured at 60 and 120°/sec.
(§2) Least Squares Mean±SEM were calculated strength and functionality changes in each variable over the 12-week period. […] Statistical significance was determined for p<0.05 and a trend was determined for 0.05<p<0.10.

The nature of series [5]: 12-week HMB / Vitamin D study, muscular performance index. The series is classed as in vivo, human. Conditions: eight week performance index, older adults.
From the text: as §1
Functionality tests included: “Get-up-and-Go” performance (speed and gate), and “Get-up” performance. The “Get-up-and-Go” test consisted of timed measurements of the subject's starting from a seated position, standing, walking forward 3 meters, turning around, walking back to the chair, and sitting down. […] The complete descriptions and standardization of the tests are outlined in the Physical Dimensions of Aging by Waneen W. Spirduso (Human Kinetics, 1995).
A muscular performance index was calculated by summing the percentage change from baseline for Get-up-and-Go, Get-up, handgrip, peak torque for knee extension and flexion (60, 90 and 120°/sec) and peak torque for elbow extension and flexion (60°/sec).
as §2

Series [6] can be described thus: 12-week 2x2 HMB / Vitamin D study in older adults with exercise training, serum 25OH-VitD3. The series is classed as in vivo, human. Particulars: control or HMB alone, no Vitamin D supplement.
From the text: Elderly women (n=30) and men (n=16) were recruited into a double-blinded controlled study. The older adults were recruited from two locations in South Dakota: Brookings and Sioux Falls. The subjects underwent an initial screening and were randomized to treatments. Testing consisted of an initial (0 weeks) and follow-up testing at 4, 8 and 12 weeks over the course of the 12-week study.
as §1
The treatments were supplied in capsules of equal size and color and contained equal amounts of calcium and phosphorus. The subjects were instructed to take three capsules two times a day. Each subject was supplied with a one-week supply of the supplement, allocated by subject number and returned each week for an additional 1-week supply. […]
as §2

The nature of series [7]: 12-week HMB / Vitamin D study, urinary HMB concentration (supplement compliance). Particulars: clean catch urine sample, HMB 3.0 g/day. The series is classed as in vivo, human. How it is done: The average 25OH-VitD3 concentration at wk 0 was 26.5 ng/ml. […] However, subjects either supplemented with a control or HMB alone decreased their serum 25OH-VitD3 level by 2.0 ng/mL. A clean catch urine sample was used to test for supplement compliance.

What is called Km is the substrate concentration at which the rate is half of its maximum. As for `C=C1CC[C@H](O)C/C1=C/C=C1\CCC[C@]2(C)[C@@H]([C@H](C)CCCC(C)(C)O)CC[C@@H]12` [25OH-VitD3], the Michaelis-Menten constant (Km) in series [1] is 25 ng/mL.

For β-hydroxy-β-methylbutyrate [HMB], in series [2] (HMB 200 μM), the “decrease in protein degradation measured by [1-13C]-leucine” value came to 6.3% and the “decrease in protein degradation measured by natural leucine” value is given as 7.6%. The “loss of HMB to urine” value in series [3] is 20-50%. Also, in series [4], the “knee extension strength compared to control-treated subjects” value is “Neither the HMB alone nor the Vitamin D-treated subjects increased knee extension strength”. Moreover, the “increase in the performance index over the control” value in series [5] was found to be 35%. Moreover, in series [6], the “decrease in serum 25OH-VitD3 level” value amounted to 2.0 ng/mL. For the same compound, in series [7], the “increase in urinary HMB concentration” value turned out to be 50 fold.

Consider `C=C1CC[C@H](O)C/C1=C/C=C1\CCC[C@]2(C)[C@@H]([C@H](C)CCCC(C)C)CC[C@@H]12` [Vitamin D, cholecalciferol], for which the “dexamethasone stimulated protein degradation” value in series [2] is “tended to decrease dexamethasone stimulated protein degradation in only the faster turnover protein pool”. Besides, the “knee extension strength compared to control-treated subjects” value in series [4] is “Neither the HMB alone nor the Vitamin D-treated subjects increased knee extension strength”. Further, the “increase in the performance index over the control” value in series [5] was 58%.
